Measurements reported in patent publication US20140120083A1, “TREATMENT OF CANCERS USING PI3 KINASE ISOFORM MODULATORS” (INFINITY PHARMACEUTICALS, INC., priority 2012, published 2014).

Legend:
Type in all cases: biochemical
PI3K γ = target: T1, PI3K γ (Homo sapiens, UniProt P48736); experiment: In vitro IC50, PI3K γ
T1 construct: purchased Sigma
Text: (§1) An exemplary system is PI 3-Kinase (human) HTRF™ Assay from Upstate.

PI3K α = target: T2, PI3K α (Homo sapiens, UniProt P42336); experiment: In vitro IC50, PI3K α
T2 construct: purchased Upstate
Text: as §1

PI3K β = PI3K β (Homo sapiens, UniProt P42338); experiment: In vitro IC50, PI3K β
Text: as §1

PI3K δ = PI3K δ (Homo sapiens, UniProt O00329); experiment: In vitro IC50, PI3K δ; design: purchased Upstate
Text: as §1

Chain of PI3K δ (O00329 whole entry): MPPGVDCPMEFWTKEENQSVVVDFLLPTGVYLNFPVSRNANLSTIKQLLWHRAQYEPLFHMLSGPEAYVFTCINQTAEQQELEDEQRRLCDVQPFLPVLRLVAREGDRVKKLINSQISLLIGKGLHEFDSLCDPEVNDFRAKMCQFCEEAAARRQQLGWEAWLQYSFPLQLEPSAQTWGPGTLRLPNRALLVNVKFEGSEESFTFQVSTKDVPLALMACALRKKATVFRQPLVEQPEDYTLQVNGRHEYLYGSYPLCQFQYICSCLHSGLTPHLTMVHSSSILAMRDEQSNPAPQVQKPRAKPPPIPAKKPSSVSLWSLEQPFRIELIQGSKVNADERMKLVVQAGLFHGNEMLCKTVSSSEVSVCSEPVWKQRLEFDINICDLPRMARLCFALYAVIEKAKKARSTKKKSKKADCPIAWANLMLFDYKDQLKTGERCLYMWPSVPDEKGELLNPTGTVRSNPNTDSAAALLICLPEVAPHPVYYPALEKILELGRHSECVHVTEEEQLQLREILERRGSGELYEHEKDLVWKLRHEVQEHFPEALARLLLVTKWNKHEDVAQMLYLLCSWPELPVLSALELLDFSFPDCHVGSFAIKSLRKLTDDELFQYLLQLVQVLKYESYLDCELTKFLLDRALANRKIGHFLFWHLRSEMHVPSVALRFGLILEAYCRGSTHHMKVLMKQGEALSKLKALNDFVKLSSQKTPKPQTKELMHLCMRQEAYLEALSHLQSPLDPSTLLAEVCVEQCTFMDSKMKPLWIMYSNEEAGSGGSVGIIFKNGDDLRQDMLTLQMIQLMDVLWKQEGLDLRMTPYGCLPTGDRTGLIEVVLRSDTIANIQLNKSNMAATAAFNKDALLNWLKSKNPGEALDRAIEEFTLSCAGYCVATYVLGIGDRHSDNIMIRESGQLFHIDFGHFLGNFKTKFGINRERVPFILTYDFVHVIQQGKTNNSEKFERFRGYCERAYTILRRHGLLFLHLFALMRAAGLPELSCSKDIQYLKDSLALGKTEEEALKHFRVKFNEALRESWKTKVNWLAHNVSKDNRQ
Chain of PI3K δ (P27986 whole entry partner): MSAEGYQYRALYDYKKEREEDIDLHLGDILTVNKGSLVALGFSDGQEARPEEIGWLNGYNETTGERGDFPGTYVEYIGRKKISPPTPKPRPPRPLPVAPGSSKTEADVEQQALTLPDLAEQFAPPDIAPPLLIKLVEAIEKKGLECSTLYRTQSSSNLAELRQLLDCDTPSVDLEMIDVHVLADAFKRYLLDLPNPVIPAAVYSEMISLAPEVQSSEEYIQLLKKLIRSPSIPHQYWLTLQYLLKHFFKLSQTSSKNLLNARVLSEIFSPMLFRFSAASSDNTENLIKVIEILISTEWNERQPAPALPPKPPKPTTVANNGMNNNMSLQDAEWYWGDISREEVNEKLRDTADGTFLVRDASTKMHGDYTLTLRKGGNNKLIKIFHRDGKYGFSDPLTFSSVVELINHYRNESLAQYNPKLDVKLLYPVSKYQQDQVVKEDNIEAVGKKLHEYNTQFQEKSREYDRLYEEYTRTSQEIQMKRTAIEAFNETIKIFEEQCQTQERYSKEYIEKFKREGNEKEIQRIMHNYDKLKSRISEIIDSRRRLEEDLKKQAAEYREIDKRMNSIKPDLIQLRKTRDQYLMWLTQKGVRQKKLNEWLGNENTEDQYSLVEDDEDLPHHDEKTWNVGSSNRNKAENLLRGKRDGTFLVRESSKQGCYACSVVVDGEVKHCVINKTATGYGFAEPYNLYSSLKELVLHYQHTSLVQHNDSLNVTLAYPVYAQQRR
T2 sequence (P42336 whole entry): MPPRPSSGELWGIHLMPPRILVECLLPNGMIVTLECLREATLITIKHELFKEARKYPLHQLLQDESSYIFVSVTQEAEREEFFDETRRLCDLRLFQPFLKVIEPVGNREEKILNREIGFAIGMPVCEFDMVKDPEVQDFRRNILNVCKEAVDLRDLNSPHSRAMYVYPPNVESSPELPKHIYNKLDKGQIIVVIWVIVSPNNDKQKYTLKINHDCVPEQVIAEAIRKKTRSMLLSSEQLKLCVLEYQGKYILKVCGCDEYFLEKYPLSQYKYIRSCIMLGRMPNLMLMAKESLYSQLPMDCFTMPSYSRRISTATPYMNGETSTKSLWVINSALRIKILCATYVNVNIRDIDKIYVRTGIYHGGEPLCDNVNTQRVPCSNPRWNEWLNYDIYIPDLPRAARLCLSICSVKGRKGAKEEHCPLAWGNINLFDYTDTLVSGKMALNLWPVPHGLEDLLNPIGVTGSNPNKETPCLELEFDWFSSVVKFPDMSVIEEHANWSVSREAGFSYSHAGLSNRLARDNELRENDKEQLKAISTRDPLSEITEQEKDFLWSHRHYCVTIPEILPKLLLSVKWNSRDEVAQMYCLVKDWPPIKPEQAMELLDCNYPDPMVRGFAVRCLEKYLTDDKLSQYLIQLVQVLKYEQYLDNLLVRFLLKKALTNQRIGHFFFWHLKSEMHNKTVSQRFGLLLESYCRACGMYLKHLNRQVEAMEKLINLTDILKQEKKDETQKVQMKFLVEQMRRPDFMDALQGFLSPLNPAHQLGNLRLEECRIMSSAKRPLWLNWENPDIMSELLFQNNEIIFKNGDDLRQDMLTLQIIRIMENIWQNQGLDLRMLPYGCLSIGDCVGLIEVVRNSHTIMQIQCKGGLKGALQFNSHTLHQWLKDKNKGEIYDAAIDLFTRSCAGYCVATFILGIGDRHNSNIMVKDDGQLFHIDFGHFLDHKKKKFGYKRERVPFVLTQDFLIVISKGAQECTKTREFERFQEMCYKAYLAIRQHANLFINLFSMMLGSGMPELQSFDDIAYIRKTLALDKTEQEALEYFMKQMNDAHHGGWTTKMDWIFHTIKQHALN
T2 sequence (P27986 whole entry partner): as the sequence (P27986 whole entry partner) above
T1 sequence (P48736 whole entry): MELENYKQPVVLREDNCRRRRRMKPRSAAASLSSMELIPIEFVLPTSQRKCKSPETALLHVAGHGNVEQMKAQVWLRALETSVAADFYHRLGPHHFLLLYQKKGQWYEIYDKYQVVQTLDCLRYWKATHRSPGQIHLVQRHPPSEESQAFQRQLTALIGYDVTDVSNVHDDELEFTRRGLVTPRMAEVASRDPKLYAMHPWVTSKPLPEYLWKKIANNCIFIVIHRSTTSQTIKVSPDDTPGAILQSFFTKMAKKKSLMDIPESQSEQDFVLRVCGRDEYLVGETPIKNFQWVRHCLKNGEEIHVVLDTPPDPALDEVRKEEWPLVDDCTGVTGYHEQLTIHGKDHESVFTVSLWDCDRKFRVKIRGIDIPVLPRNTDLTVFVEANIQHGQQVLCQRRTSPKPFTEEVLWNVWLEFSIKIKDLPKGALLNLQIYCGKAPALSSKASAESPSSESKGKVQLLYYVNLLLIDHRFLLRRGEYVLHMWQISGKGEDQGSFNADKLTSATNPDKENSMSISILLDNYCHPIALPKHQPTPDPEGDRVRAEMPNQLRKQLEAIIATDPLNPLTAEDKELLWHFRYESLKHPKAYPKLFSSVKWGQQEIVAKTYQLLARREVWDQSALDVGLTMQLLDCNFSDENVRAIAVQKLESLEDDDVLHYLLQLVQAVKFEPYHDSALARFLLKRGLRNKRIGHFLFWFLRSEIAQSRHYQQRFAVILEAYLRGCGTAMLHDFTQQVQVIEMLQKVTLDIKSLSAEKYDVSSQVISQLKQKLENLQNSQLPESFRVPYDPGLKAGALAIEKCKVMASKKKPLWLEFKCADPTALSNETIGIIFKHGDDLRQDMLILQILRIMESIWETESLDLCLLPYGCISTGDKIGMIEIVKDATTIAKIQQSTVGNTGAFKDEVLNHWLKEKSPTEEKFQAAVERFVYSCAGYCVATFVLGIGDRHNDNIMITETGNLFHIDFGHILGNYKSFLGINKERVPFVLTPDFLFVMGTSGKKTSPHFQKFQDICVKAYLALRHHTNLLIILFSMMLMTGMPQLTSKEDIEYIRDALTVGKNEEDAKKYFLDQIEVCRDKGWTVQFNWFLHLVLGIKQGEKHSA
Chain of PI3K β (P42338 whole entry): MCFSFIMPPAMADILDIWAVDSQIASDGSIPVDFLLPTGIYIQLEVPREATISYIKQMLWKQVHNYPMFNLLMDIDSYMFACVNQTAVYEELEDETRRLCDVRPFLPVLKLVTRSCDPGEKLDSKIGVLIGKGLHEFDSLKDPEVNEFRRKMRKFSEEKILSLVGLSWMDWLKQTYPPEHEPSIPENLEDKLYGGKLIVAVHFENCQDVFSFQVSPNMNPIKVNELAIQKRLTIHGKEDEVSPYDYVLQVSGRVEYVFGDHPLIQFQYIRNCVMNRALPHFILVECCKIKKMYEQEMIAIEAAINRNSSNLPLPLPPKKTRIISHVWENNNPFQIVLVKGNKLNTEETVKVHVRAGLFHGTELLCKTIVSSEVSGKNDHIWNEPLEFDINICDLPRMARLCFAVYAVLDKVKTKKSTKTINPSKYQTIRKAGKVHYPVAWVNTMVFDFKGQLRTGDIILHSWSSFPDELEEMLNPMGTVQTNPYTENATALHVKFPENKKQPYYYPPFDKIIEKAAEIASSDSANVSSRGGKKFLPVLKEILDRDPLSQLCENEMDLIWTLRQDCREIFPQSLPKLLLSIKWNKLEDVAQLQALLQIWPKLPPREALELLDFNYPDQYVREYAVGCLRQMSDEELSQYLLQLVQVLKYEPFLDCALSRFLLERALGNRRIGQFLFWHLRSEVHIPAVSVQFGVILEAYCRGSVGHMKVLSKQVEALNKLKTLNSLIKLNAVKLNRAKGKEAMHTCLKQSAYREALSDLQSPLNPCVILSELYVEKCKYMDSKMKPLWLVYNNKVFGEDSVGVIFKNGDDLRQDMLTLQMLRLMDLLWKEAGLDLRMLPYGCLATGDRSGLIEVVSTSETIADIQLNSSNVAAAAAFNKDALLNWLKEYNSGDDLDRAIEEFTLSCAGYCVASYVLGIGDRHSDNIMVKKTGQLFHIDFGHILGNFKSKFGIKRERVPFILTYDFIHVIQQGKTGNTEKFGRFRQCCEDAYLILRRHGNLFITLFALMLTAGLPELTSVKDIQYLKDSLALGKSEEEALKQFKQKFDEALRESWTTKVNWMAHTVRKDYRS

| IC50 (PI3K γ) [µM] | IC50 (PI3K α) [µM] | IC50 (PI3K β) [µM] | IC50 (PI3K δ) [µM] | SMILES |
| --- | --- | --- | --- | --- |
| < 1 | > 10 | > 10 | < 10 | Cc1cccc2cc(Cn3nc(-c4ccc(O)cc4)c4c(N)ncnc43)n(-c3ccccc3F)c(=O)c12 [Compound 46] |
| < 1 | > 10 | < 10 | < 0.1 | CCC(Nc1ncnc2[nH]cnc12)c1cc2cccc(C)c2c(=O)n1C1CCC1 (stereo not shown) [Compound 212] |
| > 10 | > 10 | > 10 | < 10 | Cc1cccc2cc(Cn3nc(C(C)C)c4c(N)ncnc43)n(-c3ccccc3)c(=O)c12 [Compound 317] |
| < 0.1 | < 1 | < 0.1 | < 0.1 | Cc1cccc2cc([C@H](C)Nc3ncnc4[nH]cc(Br)c34)n(C3CC3)c(=O)c12 [Compound 272] |
| < 0.1 | < 1 | < 0.1 | < 0.1 | Cc1cccc2cc(C(C)Nc3nc(N)nc4[nH]cnc34)n(-c3ccccc3)c(=O)c12 (stereo not shown) [Compound 320] |
| < 0.1 | < 1 | < 0.1 | < 0.1 | Cc1cccc2cc([C@H](C)Nc3ncnc4[nH]cc(C(N)=O)c34)n(C3CC3)c(=O)c12 [Compound 287] |
| < 10 | > 10 | > 10 | < 1 | Cc1cccc2cc([C@H](C)Nc3nc(Cl)ncc3Cl)n(-c3ccccc3)c(=O)c12 [Compound 248] |
| < 0.1 | > 10 | > 10 | < 0.1 | Cc1ccccc1-n1c(Cn2nc(-c3ccc(F)c(O)c3)c3c(N)ncnc32)cc2ccccc2c1=O [Compound 54] |
| < 0.1 | < 10 | < 0.1 | < 0.1 | CC(=O)Nc1nc2cc(-c3nn(Cc4cc5cccc(C)c5c(=O)n4-c4ccccc4)c4ncnc(N)c34)ccc2o1 [Compound 253] |
| < 0.1 | < 10 | < 1 | < 0.1 | Cc1cccc2cc(Cn3nc(-c4cc(O)cc(F)c4)c4c(N)ncnc43)n(-c3ccccc3Cl)c(=O)c12 [Compound 97] |
| < 10 | > 10 | > 10 | < 0.1 | CCc1nn(Cc2cc3cccc(C)c3c(=O)n2-c2ccccc2C)c2ncnc(N)c12 [Compound 294] |
| < 0.1 | > 10 | < 1 | < 0.1 | Cc1cccc2cc(Cn3nc(-c4cccc(O)c4)c4c(N)ncnc43)n(C(C)C)c(=O)c12 [Compound 62] |
| < 0.1 | < 1 | < 1 | < 0.1 | Cc1cccc2cc(Cn3nc(-c4cccc(O)c4)c4c(N)ncnc43)n(C3CC3)c(=O)c12 [Compound 102] |
| < 10 | > 10 | > 10 | < 1 | Cc1ccccc1-n1c(Cn2nc(CCC(N)=O)c3c(N)ncnc32)cc2cccc(C)c2c1=O [Compound 175] |
| > 10 | > 10 | > 10 | < 10 | Cc1ccccc1-n1c(Cn2nc(CN3CCOCC3)c3c(N)ncnc32)cc2cccc(C)c2c1=O [Compound 194] |
| > 10 | > 10 | > 10 | > 10 | Cc1cccc2cc([C@H](C)NC3CCOCC3)n(-c3ccccc3)c(=O)c12 [Compound 259] |
| < 0.1 | > 10 | > 10 | < 0.1 | Cc1cccc2cc(Cn3nc(I)c4c(N)ncnc43)n(-c3ccccc3O)c(=O)c12 [Compound 79] |
| < 0.1 | > 10 | < 10 | < 0.1 | Cc1cccc2cc([C@H](C)Nc3nc(N)ncc3C(F)(F)F)n(-c3ccccc3)c(=O)c12 [Compound 324] |
| < 1 | > 10 | > 10 | < 0.1 | COc1ccccc1-n1c(Cn2nc(I)c3c(N)ncnc32)cc2cccc(C)c2c1=O [Compound 70] |
| < 0.1 | > 10 | < 10 | < 0.1 | Cc1ccccc1-n1c(Cn2nc(-c3ccc(F)c(O)c3)c3c(N)ncnc32)cc2cccc(C)c2c1=O [Compound 12] |
| < 1 | > 10 | < 10 | < 0.1 | Cc1cccc2cc(Cn3nc(C(F)F)c4c(N)ncnc43)n(-c3ccccc3)c(=O)c12 [Compound 308] |
| > 10 | > 10 | > 10 | < 1 | Cc1ccccc1-n1c(Cn2nc(C#C[C@@H](C)O)c3c(N)ncnc32)cc2cccc(F)c2c1=O [Compound 43] |
| < 1 | > 10 | > 10 | < 10 | Cc1ccccc1-n1c(Cn2nc(-c3ccc(F)cc3)c3c(N)ncnc32)cc2cccc(C)c2c1=O [Compound 27] |

| IC50 (PI3K γ) [µM] | IC50 (PI3K α) [µM] | IC50 (PI3K β) [µM] | IC50 (PI3K δ) [µM] | SMILES |
| --- | --- | --- | --- | --- |
| < 0.1 | < 1 | < 10 | < 0.1 | Cc1cccc2cc(Cn3nc(-c4cc(O)cc(F)c4)c4c(N)ncnc43)n(-c3ccccc3)c(=O)c12 [Compound 147] |
| < 0.1 | > 10 | > 10 | < 0.1 | Cc1cccnc1-n1c(Cn2nc(-c3ccc(F)c(O)c3)c3c(N)ncnc32)cc2cccc(C)c2c1=O [Compound 68] |
| < 1 | < 10 | < 1 | < 0.1 | Cc1cccc2cc(Cn3nc(-c4cc(O)cc(F)c4)c4c(N)ncnc43)n(C(C)C)c(=O)c12 [Compound 66] |
| < 0.1 | > 10 | < 10 | < 0.1 | Cc1cccc2cc([C@H](C)Nc3nc(N)ncc3Cl)n(-c3ccccc3)c(=O)c12 [Compound 249] |
| < 1 | > 10 | < 1 | < 0.1 | Cc1cccc2cc([C@H](C)Nc3ncnc4[nH]nc(Cl)c34)n(C3CC3)c(=O)c12 [Compound 293] |
| < 10 | > 10 | > 10 | < 1 | Cc1cccc2cc([C@H](C)Nc3cc(N)nc(Cl)n3)n(-c3ccccc3)c(=O)c12 [Compound 285] |
| < 0.1 | < 1 | < 1 | < 0.1 | Cc1cccc2cc(Cn3nc(-c4ccc5oc(N)nc5c4)c4c(N)ncnc43)n(C3CCC3)c(=O)c12 [Compound 208] |
| < 0.1 | < 10 | < 10 | < 0.1 | CCc1ccccc1-n1c(Cn2nc(-c3cn[nH]c3)c3c(N)ncnc32)cc2cccc(C)c2c1=O [Compound 190] |
| < 1 | < 10 | < 10 | < 0.1 | Cc1cccc2cc(Cn3nc(-c4cc(O)cc(F)c4)c4c(N)ncnc43)n(-c3ccccc3OCCN3CCOCC3)c(=O)c12 [Compound 108] |
| < 0.1 | < 10 | < 10 | < 0.1 | CC(=O)Nc1nc2ccc(-c3nn(Cc4cc5cccc(C)c5c(=O)n4-c4ccccc4C)c4ncnc(N)c34)cc2[nH]1 [Compound 296] |
| < 10 | > 10 | > 10 | < 0.1 | CCC(Nc1ncnc2[nH]cnc12)c1cc2cccc(C)c2c(=O)n1-c1cc(F)cc(F)c1 (stereo not shown) [Compound 224] |
| < 0.1 | < 1 | < 10 | < 0.1 | CC(=O)Nc1nc2ccc(-c3nn(Cc4cc5cccc(C)c5c(=O)n4-c4ccccc4)c4ncnc(N)c34)cc2s1 [Compound 177] |
| < 0.1 | > 10 | > 10 | < 0.1 | Cc1ccccc1-n1c(Cn2nc(-c3ccc(Cl)c(O)c3)c3c(N)ncnc32)cc2ccccc2c1=O [Compound 52] |
| < 1 | > 10 | > 10 | < 0.1 | Cc1cccc2cc([C@H](C)Nc3ncnc4ccccc34)n(-c3ccccc3)c(=O)c12 [Compound 238] |
| < 10 | > 10 | > 10 | < 1 | Cc1cccc2cc(Cn3nc(Cl)c4c(N)ncnc43)n(-c3ccccc3F)c(=O)c12 [Compound 34] |
| > 10 | > 10 | > 10 | < 10 | Cc1cccc2cc([C@H](C)Nc3ncc(C(F)(F)F)c(N)n3)n(-c3ccccc3)c(=O)c12 [Compound 325] |
| < 0.1 | < 1 | < 10 | < 0.1 | Cc1ccccc1-n1c(Cn2nc(-c3ccc4nc(N)sc4c3)c3c(N)ncnc32)cc2cccc(C)c2c1=O [Compound 145] |
| < 10 | > 10 | > 10 | < 10 | Cc1cccc2cc(Cn3nc(-c4cnn(C)c4)c4c(N)ncnc43)n(-c3ccccc3F)c(=O)c12 [Compound 164] |
| < 10 | > 10 | > 10 | < 0.1 | Cc1ccccc1-n1c(Cn2nc(C#C[C@@H](C)O)c3c(N)ncnc32)cc2cccc(C)c2c1=O [Compound 37] |
| < 1 | < 10 | < 10 | < 0.1 | Cc1cccc2cc(Cn3nc(-c4cn[nH]c4)c4c(N)ncnc43)n(-c3ccccc3)c(=O)c12 [Compound 206] |
| < 0.1 | > 10 | < 1 | < 0.1 | Cc1cccc2cc(Cn3nc(-c4cccc(O)c4)c4c(N)ncnc43)n(-c3ccccc3C(C)C)c(=O)c12 [Compound 82] |
| < 0.1 | > 10 | < 10 | < 0.1 | Cc1cccc2cc(Cn3nc(-c4ccc(F)c(O)c4)c4c(N)ncnc43)n(C(C)C)c(=O)c12 [Compound 67] |
| < 1 | > 10 | < 10 | < 0.1 | Cc1ccccc1-n1c(Cn2nc(-c3cc(O)cc(F)c3)c3c(N)ncnc32)cc2cccc(F)c2c1=O [Compound 55] |
